Measured values: patent US6028197A, “Dibenzo[a,g]quinolizinium derivatives and the salts thereof” (Hanwha Corporation, priority 1998, dated 2000)

Assays:
sterol 14-reductase = target: T1, sterol 14-reductase (Rattus norvegicus, UniProt A0ACM8Q6X4); assay: Inhibition of sterol 14-reductase in rat liver microsomes; type: biochemical; conditions: read-out: Enzyme Activity (relative in vitro activity for sterol 14-reductase, IC50 class)
T1 construct: microsome which was used as an enzyme source of sterol 14-reductase; from tissue; host or cells: liver microsomes of male Sprague-Dawley rats fed lovastatin and cholestyramine
T1 sequence (A0ACM8Q6X4 1-418): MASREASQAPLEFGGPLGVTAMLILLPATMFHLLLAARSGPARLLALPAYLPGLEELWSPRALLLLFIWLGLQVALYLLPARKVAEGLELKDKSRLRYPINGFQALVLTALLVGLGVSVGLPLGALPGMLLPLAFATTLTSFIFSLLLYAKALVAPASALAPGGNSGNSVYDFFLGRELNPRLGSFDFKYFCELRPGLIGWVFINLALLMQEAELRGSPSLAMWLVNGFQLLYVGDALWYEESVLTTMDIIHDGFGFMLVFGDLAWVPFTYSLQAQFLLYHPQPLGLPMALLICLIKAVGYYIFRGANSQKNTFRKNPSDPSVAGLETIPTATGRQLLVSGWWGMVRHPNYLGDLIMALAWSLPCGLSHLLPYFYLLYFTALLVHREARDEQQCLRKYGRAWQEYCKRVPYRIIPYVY

HepG2 cells = assay: Cholesterol biosynthesis in cultured human liver cell line ([1,2-14C]acetate incorporation); type: cell-based; conditions: compared with AY9944 (comparative drug)
Procedure: Cultured human liver HepG2 cell line was grown on RPMI (Rosewell park Memorial Institute) 1640 culture medium containing 10% PBS until 60% of monolayer are formed in a 60 mm culture dish. After replacing the medium with 3 ml of a fresh culture medium containing 10% (v/v) LPDS (Fetal calf lipoprotein-deficient serum), the cells were further grown for 48 hours until 90% of cultivation degree appear The culture medium was removed and the cell was then washed with PBS. 2 ml of culture medium containing compound no. 2 (final concentration 100 μM) and AY-9944 (final concentration 1 μM) were added thereto. Then, the medium was cultivated at 37° C. for 1 hour under the condition of 95% air/5% carbonic acid gas. AY-9944 which is an inhibitor for sterol 7-reductase was used as a control drug for assuring the present experimental procedure on the inhibition of cholesterol biosynthesis. Thereafter, 3 μCi of [1,2-^14 C]acetate (72 mCi/mmol) were added thereto. The cultivation was continued for 2 hours so that the isotope is introduced into the cell and used as a precursor for sterol to be synthesized. Then, the culture medium was completely removed and washed with PBS twice and the cells were collected by scratching. 10 μg of cholesterol, 10 μg of lanosterol and [^3 H]cholesterol (30,000 dpm) were added thereto, and saponification reaction was carried out at 70° C. for an hour by adding 7.5% of methanolic KOH solution. Unsaponified sterol was removed by extracting them three times with 3 ml of petroleum ether and dried with nitrogen purging. The dried samples were redissolved in 200 μl of chloroform. An aliquot of the samples was loaded onto Silicagel 60F thin layer plate and then separated using ethyl acetate/hexane 25/75 (v/v) as the developing solvent. The thin layer film was developed by exposure to Amersham Hyperfilm at -70° C. for 7 days. Cholesterol band were confirmed by comparing the band appeared in the film and that appeared in the iodine-stained thin layer. After scratching the cholesterol band, it was quantified by a liquid scintillation counter.

Syrian Golden Hamster = assay: In vivo effect on plasma lipids in Syrian Golden Hamster; conditions: for HDL cholesterol, change versus normal diet control / LDL cholesterol, change versus normal diet control / Total cholesterol, change versus normal diet control / Triglyceride, change versus normal diet control / HDL cholesterol / LDL cholesterol / Total cholesterol / Triglyceride: 0.3 mg/kg/day oral, 14 days; for total cholesterol, LDL-cholesterol, and triglyceride levels: compared with lovastatin; for HDL cholesterol / LDL cholesterol / Total cholesterol / Triglyceride: normal diet, plasma
Procedure: In order to investigate the effect of the compound of formula (I) of the invention, the compound was orally administered into male Syrian Golden Hamsters having weights of 90~110 g for two weeks and blood was then taken from each animal. Plasma lipids, i.e., total cholesterol, LDL-cholesterol,HDL-cholesterol and triglycerides were analyzed using an automatic analyzer (Automatic analyzer model Hitachi 7150).
Male Syrian Golden Hamsters weighing 90~110 g distributed from Samyuk Animal Laboratory, Seoul, Korea were bred under the following conditions: they were maintained under reverse light cycle (light cycle: from 6 P.M to 6 A.M; dark cycle: from 6 A.M. to 6 P.M.). The food and water were supplied at 10 A.M. The commercially available standard rodent chows were used. The hamsters were divided into 6 or 7 animals per group. The animals were fasted for 12 hours before administrating the drug. Then, 5,6-dihydrodibenzo[a,g]quinolizinium salts (compound no. 2) dissolved in a 0.25% methyl cellulose solution was administered orally for 14 days at the indicated time per a day. After fasting animals for 24 hours from the last administration, blood was extracted using a cardiac puncture and plasma was then isolated. Plasma lipids, i.e., total cholesterol, LDL-cholesterol, HDL-cholesterol and triglyceride values were analyzed using Automatic Analyzer (Hitachi 7150).

[1] = Acute oral toxicity in SD rats; type: in vivo; conditions: rat, in vivo, po, rats
Procedure: (§1) Meanwhile, the toxicity of the compounds of the present invention was investigated as follows: i.e., the compounds were suspended into propylene glycol and then orally administered into each of 5 male and female SD rats at the age of 5-weeks that were fasted for 12 hours. Under the usual breeding conditions, general symptoms, weight change and lethal case of the above rats were monitored for two weeks. At the dose over 2,000 mg/kg of the compound nos. 2, 3, 9 and 68, general symptoms and the body weight change of the animals were normal and the lethal case was not observed.

SD rats = assay: Acute oral toxicity in SD rats; type: in vivo; conditions: for general symptoms and the body weight change: oral dose over 2,000 mg/kg, monitored for two weeks; for lethal case: rat, in vivo
Procedure: as §1

| SMILES | IC50 (sterol 14-reductase) [nM] | inhibition of cholesterol biosynthesis in human HepG2 cell line (HepG2 cells) | HDL cholesterol, change versus normal diet control (Syrian Golden Hamster) [%] | LDL cholesterol, change versus normal diet control (Syrian Golden Hamster) [%] | Total cholesterol, change versus normal diet control (Syrian Golden Hamster) [%] | Triglyceride, change versus normal diet control (Syrian Golden Hamster) [%] | total cholesterol, LDL-cholesterol, and triglyceride levels (Syrian Golden Hamster) | HDL cholesterol (Syrian Golden Hamster) [mg/dL] | LDL cholesterol (Syrian Golden Hamster) [mg/dL] | Total cholesterol (Syrian Golden Hamster) [mg/dL] | Triglyceride (Syrian Golden Hamster) [mg/dL] | LD50 at 336 h ([1]; female) [mg/kg] | LD50 at 336 h ([1]; male) [mg/kg] | general symptoms and the body weight change (SD rats) | lethal case (SD rats) |
| --- | --- | --- | --- | --- | --- | --- | --- | --- | --- | --- | --- | --- | --- | --- | --- |
| CCc1c2[n+](cc3c(OCc4ccc(C(F)(F)F)cc4)c(OC)ccc13)CCc1cc(OC)c(OC)cc1-2 [Compound No. 9, 5,6-dihydro-2,3-dimethoxybenzo[a]-13-ethyl-10-methoxy-9-(4-trifluoromethyl)benzyloxybenzo[g]quinolizinium chloride] | < 1000 | markedly inhibited | -6.0 | -45.4 | -37.0 | -43.6 | markedly decreased | 56.2 ± 3.0 | 20.2 ± 2 | 82.4 ± 7 | 44.8 ± 5.5 | > 2000 | > 2500 | normal | not observed |
| CCCOc1cc2c(cc1OCCC)-c1c(CC)c3ccc(OCCC)c(OCc4ccc(C(F)(F)F)cc4)c3c[n+]1CC2 [Compound No. 68, 5,6-dihydro-2,3-dipropoxybenzo[a]-13-ethyl-10-propoxy-9-(4-trifluoromethyl)benzyloxybenzo[g]quinolizinium chloride] | < 1000 | markedly inhibited | -2.0 | -41.1 | -33.1 | -43.1 | markedly decreased | 58.6 ± 3 | 21.8 ± 3 | 87.4 ± 6 | 45.2 ± 7 | > 3000 | > 3000 | normal | not observed |
